Reference: publication PMC5131319, “Occurrence, temporal trends, and half-lives of perfluoroalkyl acids (PFAAs) in occupational workers in China” (Scientific Reports, 2016)
“And” between values parts separate entries of the source, which are not always exact repeats. Identical values can stand only once. Like-named read-outs stand apart in the source and are kept apart here.

What was measured:
[1] = Half-life estimated by daily clearance rates (first-order model, k = Cltotal/Vd); type: in vivo, human; conditions: for half-life: human, serum and urine, other: occupational exposure
Source text: (§1) Olsen et al.[21] found linear relationship between the logarithm of serum PFAAs concentration and time, and a first order model was adopted to estimate the half-lives of PFAAs. The elimination of PFAAs in humans was also described with the following equation: […]
(§2) If we set C(t) as 1/2C0, then the half-life
(§3) where k is the elimination rate constant. We calculated k using two approaches in the present study. In the first approach, k is defined as Cltotal/Vd, where Vd stands for the volume of distribution of PFAAs in the human body. Cltotal represents the total daily PFAAs clearance in the human body; for men and women older than 50, it refers to renal clearance, while for young women, it is defined as the sum of menstrual clearance and renal clearance. To keep consistency with other studies, Vd of PFOS and PFHxS were set at 230 mL kg^−1, and Vd of PFOA was set at 170 mL kg^−1 in this study. In the second approach, k is defined as the average annual decline rates of PFAAs in workers who participated in this study.
We used a first order model to estimate the half-lives of PFAAs in workers (Eq (2)). k was defined as […], where Cltotal referred to renal clearance for men and women older than 50 and to the sum of menstrual clearance and renal clearance for young women. According to Eq (2), the half-lives of PFHxS, PFOA, and PFOS for the occupational workers tested ranged from 0.51–3799 years, 0.44–3663 years, and 0.76–30475 years, with GM and median values of 14.7 and 11.7, 4.1 and 4.0, 32.6 and 21.6 years, respectively (Table 2). […] The GM values of the half-lives of PFHxS, PFOA, and PFOS for men here were 19.9, 4.7, and 60.9 years, respectively, while those for women were 7.5, 3.1, and 8.0 years, respectively. The half-lives estimated by the limited clearance route information could be considered as the upper limits for PFAAs. It seemed likely that the unrealistically long half-life estimates derived from the urinary data were actually evidence of the contribution of fecal elimination to the clearance of these chemicals. The extremely long half-lives of PFAAs, such as 3799 years for PFHxS, 3663 years for PFOA, and 30475 years for PFOS, were caused by the application of LOD/2 instead of ND in workers’ urine samples. The geometric mean or median value of the PFAAs half-lives can better reflect the actual situation.

[2] = Half-life estimated by annual decline rates of serum PFAAs (first-order model); type: in vivo, human
Source text: as §1, §2, §3
Serum PFAAs of workers were sequentially measured for 5 years, and they fluctuated during our sampling period, although different serum PFAAs decreased in certain years. […] For PFOA, 31 out of 42 workers decreased in the period of 2011–2012, and the serum PFOA concentration dropped by 41%. […] We assumed that there were no new inputs of PFAAs in these workers, and thus k in Eq (2) was set as the average annual serum PFAA decline rate. The half-lives of PFHxS, PFOA, and PFOS estimated by Eq (2) were 3.6, 1.7, and 1.9 years.

[3] = PFAA concentration in morning urine of occupational workers (HPLC-ESI/MS/MS); type: in vivo, human; conditions: for Urine PFOA concentration / Urine PFOS concentration: individual workers
Procedure: The selected fluorochemical plant (Henxin Chemical Plant) in this study is one of the largest producers of PFOS-related chemicals in China and is located in Yingcheng, Hubei province. Perfluoroalkyl sulfonic acids (PFSAs) and perfluorotertiary amines are synthesized through an electro-chemical fluorination (ECF) process. We collected paired serum and urine samples from the occupational workers in the plant for five consecutive years, and the sampling activities were carried out in Nov. 2008, Nov. 2009, Nov. 2010, Dec. 2011, and Dec 2012, respectively. The Medical Research Ethics Committee, School of Medicine, Jianghan University, approved the ethics of this study, and all methods were performed in accordance with the relevant guidelines and regulations, moreover, all volunteers gave written informed consent. Demographic information of the donors, including gender, age, length of service, and work assignment, was collected with a questionnaire (Table S1). The sampled population included a total of 302 occupational workers, of which there were 89 female and 213 male participants. In total, 302 serum and 274 urine samples were collected.
The participants were told not to eat breakfast before the sampling, and morning urine samples and blood samples were collected. Serum was separated from the blood by centrifugation at 1100 × g at 4 °C for 10 min and then placed on ice. Serum samples were then transferred to our laboratory on the same day and stored in polypropylene containers at −20 °C until analysis.
All pre-treatment methods and instrument analysis of PFAAs in serum and urine samples are based on previous studies with minor modifications (see Supplementary Information)[3][31]. Based on the PFAA profiles in environmental matrices around the same plant in our previous study, only 3 main PFAAs, PFHxS, PFOA, and PFOS, were analyzed in the obtained serum and urine samples. Instrumental analysis of the PFAAs was performed by a HPLC-ESI/MS/MS system (HPLC: Waters 2695, MS: Waters Quattro Premier XE). The limits of detection (LODs) of PFHxS, PFOA, and PFOS were 0.020, 0.063, and 0.018 ng mL^−1 for serum samples and 0.008, 0.025, and 0.007 ng mL^−1 for urine samples, respectively. A procedural blank was performed for every batch of seven samples, and all of the blank levels were below the LODs. […] Details of quality assurance and quality control of the chemical analysis can be found in the Supplementary Information.
Urine samples were pretreated by solid phase extraction. Briefly, 1 mL of urine spiked with 5 ng of internal standard was added to a 15 - mL PP tube and diluted with 13 mL water. The solid phase extraction procedure was then performed following the previously described serum extraction procedure.

[4] = cited from earlier work
[5] = set-up: method as in PMID 23980546, PMID 12499116, PMID 20236705; conditions: set value; cited from earlier work
[6] = Female workers, number 71, menstrual clearance added to renal clearance
[7] = Male workers, number 136, renal clearance
[8] = Fabric finishing agent department, N 8
[9] = retired fluorochemical production workers

Row | SMILES | Half-life estimated through daily elimination, Max [1, 6] [years] | Half-life estimated through daily elimination, Median [1, 6] [years] | Half-life estimated through daily elimination, Min [1, 6] [years] | Half-life estimated through daily elimination, Min [1, 7] [years] | Half-life estimated through daily elimination, Min ([1]; Total workers, number 207) [years] | Urine concentration, mean ([3]; All workers, N 274) [ng/mL] | Urine concentration, median ([3]; All workers, N 274) [ng/mL] | Urine concentration, mean ([3]; Electrolytic department, N 67) [ng/mL] | Urine concentration, median ([3]; Electrolytic department, N 67) [ng/mL] | Urine concentration, mean [3, 8] [ng/mL] | Urine concentration, median [3, 8] | Urine concentration, mean ([3]; Management office, N 76) [ng/mL] | Urine concentration, median ([3]; Management office, N 76) [ng/mL] | Urine concentration, mean ([3]; Research building, N 25) [ng/mL] | Urine concentration, median ([3]; Research building, N 25) [ng/mL] | Urine concentration, mean ([3]; Sulfonation department, N 98) [ng/mL] | Urine concentration, median ([3]; Sulfonation department, N 98) [ng/mL] | Shortest half-life in humans reported in previous studies [4] [years] | Half-life (GM) [4, 9] [years] | Vd (volume of distribution in the human body) [5] [L/kg] | also measured
1 | O=C(O)C(F)(F)C(F)(F)C(F)(F)C(F)(F)C(F)(F)C(F)(F)C(F)(F)F [PFOA, perfluorooctanoic acid] | 11.1 | 2.8 | 0.44 | 0.48 | 0.44 | 4.3 | 1.9 | 6.7 | 3.5 | 5.1 | 1.5 ng/mL | 1.5 | 0.86 | 1.8 | 0.92 | 4.8 | 2.7 | 1.2 | 3.5 | 0.17 | half-life ([1]; both sexes, Total workers, number 207, read-out: Half-life estimated through daily elimination, GM (converted)): 1500 days; half-life ([1]; both sexes, Total workers, number 207, read-out: Half-life estimated through daily elimination, Median (converted)): 1460 days; half-life ([1]; female, Female workers, number 71, menstrual clearance added to renal clearance, read-out: Half-life estimated through daily elimination, GM (converted)): 1130 days; half-life ([1]; male, Male workers, number 136, renal clearance, read-out: Half-life estimated through daily elimination, GM (converted)): 1720 days; half-life ([1]; male, Male workers, number 136, renal clearance, read-out: Half-life estimated through daily elimination, Median (converted)): 1610 days; Drop of serum concentration ([2]; 2011–2012, 42 workers): 41%; half-life ([2]; human, k = average annual serum decline rate, no new inputs assumed, two time points): 621 days; Urine concentration, range [3, 8]: 1.2 to 22.2 ng/mL; Urine PFOA concentration ([3]; sampling year 2008): 5.18 ng/mL and 0.0901 ng/mL and 0.0937 ng/mL and 0.178 ng/mL and 2.21 ng/mL and 7.6 ng/mL and 0.0489 ng/mL and 3.75 ng/mL and 2.54 ng/mL and 2.88 ng/mL and 0.67 ng/mL and 2.31 ng/mL and 1.03 ng/mL and 1.26 ng/mL and 0.0447 ng/mL and 0.688 ng/mL and 2.24 ng/mL and 2 ng/mL and 1.47 ng/mL and 0.668 ng/mL and 0.709 ng/mL and 0.448 ng/mL and 4.18 ng/mL and 5 ng/mL and 8.09 ng/mL and 7.15 ng/mL and 6.68 ng/mL; Urine PFOA concentration ([3]; sampling year 2009): 3.45 ng/mL and 8.82 ng/mL and 14.8 ng/mL and 1.48 ng/mL and 15.8 ng/mL and 19.6 ng/mL and 6.9 ng/mL and 5.24 ng/mL and 1.14 ng/mL and 1.2 ng/mL and 1.69 ng/mL and 0.889 ng/mL and 4 ng/mL and 0.515 ng/mL and 2.24 ng/mL and 5.25 ng/mL and 1.05 ng/mL and 0.776 ng/mL and 0.537 ng/mL and 12.4 ng/mL and 4.34 ng/mL and 1.12 ng/mL and 15.3 ng/mL and 19.1 ng/mL and 10 ng/mL and 4.81 ng/mL
2 | O=S(=O)(O)C(F)(F)C(F)(F)C(F)(F)C(F)(F)C(F)(F)C(F)(F)C(F)(F)C(F)(F)F [PFOS, perfluorooctanesulfonate] | 15.1 | 9.4 | 0.76 | 2.7 | 0.76 | 4.4 | 1.2 | 1.8 | 0.93 | 0.39 | LOD | 1.6 | 0.49 | 1.4 | 1.1 | 8.8 | 3.0 | 3.7 | 4.8 | 0.23 | Half-life estimated through daily elimination, GM [1, 6]: 8.0 years; Average annual decline rate of serum concentration ([2]; 2008 to 2009, 36 workers): 37%; Half-life estimated by annual decline rates ([2]; k = average annual serum decline rate, no new inputs assumed, two time points): 1.9 years; Urine PFOS concentration ([3]; sampling year 2008): 0.918 ng/mL and 7.8 ng/mL and 7.66 ng/mL and 0.697 ng/mL and 0.425 ng/mL and 17.2 ng/mL and 3.94 ng/mL and 2.12 ng/mL and 0.736 ng/mL and 0.943 ng/mL and 2.18 ng/mL and 0.818 ng/mL and 0.217 ng/mL and 0.819 ng/mL and 0.291 ng/mL and 4.7 ng/mL and 7.69 ng/mL and 3.07 ng/mL and 0.465 ng/mL and 22.5 ng/mL and 3.09 ng/mL; Urine PFOS concentration ([3]; sampling year 2009): 0.361 ng/mL and 7.85 ng/mL and 2.17 ng/mL and 1.4 ng/mL and 0.831 ng/mL and 1.51 ng/mL and 0.198 ng/mL and 2.73 ng/mL and 0.47 ng/mL and 0.288 ng/mL and 0.078 ng/mL and 0.206 ng/mL and 0.094 ng/mL and 0.171 ng/mL and 0.84 ng/mL and 1.33 ng/mL and 0.14 ng/mL and 1.86 ng/mL and 2.58 ng/mL and 1.8 ng/mL; Urine PFOS concentration ([3]; sampling year 2010): 1.14 ng/mL and 0.258 ng/mL and 0.177 ng/mL and 64.2 ng/mL and 0.884 ng/mL and 0.714 ng/mL and 0.912 ng/mL and 0.855 ng/mL and 2.44 ng/mL and 0.39 ng/mL and 3.98 ng/mL and 0.314 ng/mL and 0.409 ng/mL and 1.98 ng/mL and 0.139 ng/mL and 14 ng/mL and 14.2 ng/mL and 7.14 ng/mL and 3.93 ng/mL; Urine PFOS concentration ([3]; sampling year 2011): 0.14 ng/mL and 0.17 ng/mL and 0.47 ng/mL and 49.90 ng/mL and 2.18 ng/mL and 0.43 ng/mL and 0.54 ng/mL and 5.08 ng/mL and 0.52 ng/mL and 0.29 ng/mL and 0.75 ng/mL and 0.51 ng/mL and 0.04 ng/mL and 0.70 ng/mL and 0.74 ng/mL and 1.78 ng/mL and 14.70 ng/mL and 7.74 ng/mL and 4.91 ng/mL and 2.24 ng/mL; Urine PFOS concentration ([3]; sampling year 2012): 0.7 ng/mL and 26.46 ng/mL and 0.46 ng/mL and 1.62 ng/mL and 0.22 ng/mL and 0.44 ng/mL and 0.58 ng/mL and 0.18 ng/mL and 0.5 ng/mL and 0.78 ng/mL and 0.1 ng/mL and 1.64 ng/mL and 0.06 ng/mL and 0.26 ng/mL and 0.12 ng/mL and 0.42 ng/mL and 7.26 ng/mL and 7.8 ng/mL and 9.72 ng/mL and 5.64 ng/mL; Half-life, population-based pharmacokinetic model ([4]; US NHANES cross-sectional data 1999 to 2012): 3.7 years; Half-life based on serum concentrations ([4]; humans): more than 5 years; Half-life by daily clearance (GM) ([4]; males and older females): 18 years; half-life ([4]; males and older females): exceeded 10 years; Half-life, 95% CI [4, 9]: 3.9–6.9 years; half-life [4, 9]: approximately 5 years; Half-life by daily clearance (GM) ([4]; young females): 5.1 years
